# Experiments:
# [1] = after administration; cited from earlier work
# [2] = system: HeLa 654 cells (EGFP gene interrupted by a mutated intron of ß-globin, IVS2-654); test: EGFP 654 assay (corrective splicing by PMO IVS2-654, flow cytometry); format: cell-based; settings: PMO-CPP conjugates, 22 h, read-out: EC50 in concentration-response EGFP assay
# Procedure: Purified constructs were then tested using an activity-based readout in which nuclear delivery results in fluorescence. Briefly, HeLa cells stably transfected with an Enhanced Green Fluorescent Protein (EGFP) gene interrupted by a mutated intron of ß-globin (IVS2-654) produce a non-fluorescent EGFP protein. Successful delivery of PMO IVS2-654 to the nucleus results in corrective splicing and EGFP synthesis.
# The amount of PMO delivered to the nucleus is therefore correlated with EGFP fluorescence, quantified by flow cytometry. Activity is reported as mean fluorescence intensity (MFI) relative to PMO alone. This activity assay provides indirect information on how much active PMO is delivered to the nucleus. Relative efficiency of a PMO-CPP could be characterized by comparing activity to internal concentration, as discussed later (FIG. 2). […]
# For individual peptide testing, PMO-peptides were dissolved in PBS without Ca2+ or Mg2+ at a concentration of 1 mM (determined by UV) before being diluted in MEM. […] Gates were applied to the data to ensure that cells that were positive for propidium iodide or had forward/side scatter readings that were sufficiently different from the main cell population were excluded. […]
# Analysis was conducted using Graphpad Prism 7 and FlowJo. For each sample, the mean fluorescence intensity (MFI) and the number of gated cells was measured. […]
Substance,time within which the majority of the drug is cleared renally [1] [h],EC50 [2] [nM]
Eteplirsen,≤ 24,–
RXRRBRRXRRBR [BPEP],–,~3000

# From patent US20250011777A1, “DELIVERY OF ANITSENSE OLIGOMERS BY MIRROR IMAGE PEPTIDES” (SAREPTA THERAPEUTICS, INC., priority 2021, published 2025)
